Measured values: ChEMBL document CHEMBL1201862, “PubChem BioAssay data set” (2004)
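Following 48 hours of exposure in 96-well plates, responses at five concentrations were used to interpolate endpoints linearly. GI50 is the concentration that inhibits growth by half.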 The source made the active and inactive calls. Cut-off read from the data, not from the text of the source: active = GI50 up to about 1.1 µM and inactive = higher.

What was measured:
Experiment in all cases: DTP human tumour cell line panel, 48 h
MDA-MB-435 = tested on: MDA-MB-435
DLD-1 = tested on: DLD-1
SK-OV-3 = tested on: SK-OV-3
KM12 = tested on: KM12
OVCAR-5 = tested on: OVCAR-5
SNB-75 = tested on: SNB-75
A549 = tested on: A549
A498 = tested on: A498
SN12C = tested on: SN12C
DMS-273 = tested on: DMS-273
LXFL 529 = tested on: LXFL 529
K562 = tested on: K562
HT-29 = tested on: HT-29
SF-539 = tested on: SF-539
SF-268 = tested on: SF-268
M14 = tested on: M14
HOP-62 = tested on: HOP-62
NCI/ADR-RES = tested on: NCI/ADR-RES
DU-145 = tested on: DU-145
CAKI-1 = tested on: CAKI-1
SNB-19 = tested on: SNB-19
MDA-N = tested on: MDA-N
NCI-H226 = tested on: NCI-H226
HCC 2998 = tested on: HCC 2998
UACC-257 = tested on: UACC-257
COLO 205 = tested on: COLO 205
SNB-78 = tested on: SNB-78
NCI-H460 = tested on: NCI-H460
NCI-H522 = tested on: NCI-H522
HCT-116 = tested on: HCT-116
NCI-H23 = tested on: NCI-H23
HCT-15 = tested on: HCT-15
ACHN = tested on: ACHN
HL-60 = tested on: HL-60
LOX IMVI = tested on: LOX IMVI
CCRF-CEM = tested on: CCRF-CEM
XF498 = tested on: XF498
KM-20L2 = tested on: KM-20L2
UO-31 = tested on: UO-31
DMS-114 = tested on: DMS-114
U-251 = tested on: U-251
BT-549 = tested on: BT-549
M19-MEL = tested on: M19-MEL
HOP-92 = tested on: HOP-92
SR = tested on: SR
PC-3 = tested on: PC-3
HOP-18 = tested on: HOP-18
RPMI-8226 = tested on: RPMI-8226
SK-MEL-5 = tested on: SK-MEL-5
SK-MEL-2 = tested on: SK-MEL-2
RXF 393 = tested on: RXF 393
IGROV-1 = tested on: IGROV-1
SW-620 = tested on: SW-620
MDA-MB-231 = tested on: MDA-MB-231
UACC-62 = tested on: UACC-62
786-0 = tested on: 786-0
SK-MEL-28 = tested on: SK-MEL-28
OVCAR-3 = tested on: OVCAR-3
OVCAR-8 = tested on: OVCAR-8
EKVX = tested on: EKVX
RXF 631 = tested on: RXF 631
TK-10 = tested on: TK-10
MOLT-4 = tested on: MOLT-4
MCF7 = tested on: MCF7
OVCAR-4 = tested on: OVCAR-4
SF-295 = tested on: SF-295
Malme-3M = tested on: Malme-3M
Hs-578T = tested on: Hs-578T

Q: `Cc1c(N)nc([C@H](CC(N)=O)NC[C@H](N)C(N)=O)nc1C(=O)N[C@H](C(=O)N[C@H](C)[C@@H](O)[C@H](C)C(=O)N[C@H](C(=O)NCCc1nc(-c2nc(C(=O)NCCC[S+](C)C)cs2)cs1)[C@@H](C)O)C(OC1OC(CO)C(O)C(O)C1OC1OC(CO)C(O)C(OC(N)=O)C1O)c1c[nH]cn1` (stereo not given in full) was tested. Which GI50 (MDA-MB-435) did it give?
A: 19600 nM (inactive)

Q: What about the GI50 (DLD-1) of the same compound?
A: 14100 nM (inactive)

Q: And the GI50 (SK-OV-3)?
A: 6460 nM (inactive)

Q: What about the GI50 (KM12) of the same compound?
A: 15600 nM (inactive)

Q: And the GI50 (OVCAR-5)?
A: 2350 nM (inactive)

Q: What about the GI50 (SNB-75) of the same compound?
A: 426 nM (active)

Q: What about the GI50 (A549) of the same compound?
A: 716 nM (active)

Q: And the GI50 (A498)?
A: 3240 nM (inactive)

Q: What about the GI50 (SN12C) of the same compound?
A: 984 nM (active)

Q: And the GI50 (DMS-273)?
A: 120 nM (active)

Q: And the GI50 (LXFL 529)?
A: 16900 nM (inactive)

Q: What about the GI50 (K562) of the same compound?
A: 8450 nM (inactive)

Q: What about the GI50 (HT-29) of the same compound?
A: 14100 nM (inactive)

Q: What about the GI50 (SF-539) of the same compound?
A: 20 nM (active)

Q: And the GI50 (SF-268)?
A: 1150 nM (inactive)

Q: What about the GI50 (M14) of the same compound?
A: 1560 nM (inactive)

Q: What about the GI50 (HOP-62) of the same compound?
A: 83.8 nM (active)

Q: What about the GI50 (NCI/ADR-RES) of the same compound?
A: 904 nM (active)

Q: What about the GI50 (DU-145) of the same compound?
A: 3660 nM (inactive)

Q: What about the GI50 (CAKI-1) of the same compound?
A: 37.9 nM (active)

Q: And the GI50 (SNB-19)?
A: 3960 nM (inactive)

Q: What about the GI50 (MDA-N) of the same compound?
A: 14800 nM (inactive)

Q: What about the GI50 (NCI-H226) of the same compound?
A: 222 nM (active)

Q: And the GI50 (HCC 2998)?
A: 9620 nM (inactive)

Q: What about the GI50 (UACC-257) of the same compound?
A: 12000 nM (inactive)

Q: What about the GI50 (COLO 205) of the same compound?
A: 6050 nM (inactive)

Q: What about the GI50 (SNB-78) of the same compound?
A: 20800 nM (inactive)

Q: What about the GI50 (NCI-H460) of the same compound?
A: 64.4 nM (active)

Q: What about the GI50 (NCI-H522) of the same compound?
A: 622 nM (active)

Q: And the GI50 (HCT-116)?
A: 415 nM (active)

Q: And the GI50 (NCI-H23)?
A: 637 nM (active)

Q: And the GI50 (HCT-15)?
A: 3270 nM

Q: What about the GI50 (ACHN) of the same compound?
A: 8.02 nM (active)

Q: What about the GI50 (HL-60) of the same compound?
A: 5730 nM (inactive)

Q: What about the GI50 (LOX IMVI) of the same compound?
A: 161 nM (active)

Q: And the GI50 (CCRF-CEM)?
A: 6750 nM (inactive)

Q: And the GI50 (XF498)?
A: 776 nM (active)

Q: What about the GI50 (KM-20L2) of the same compound?
A: 19900 nM (inactive)

Q: What about the GI50 (UO-31) of the same compound?
A: 478 nM (active)

Q: What about the GI50 (DMS-114) of the same compound?
A: 438 nM (active)

Q: What about the GI50 (U-251) of the same compound?
A: 834 nM (active)

Q: And the GI50 (BT-549)?
A: 10200 nM (inactive)

Q: What about the GI50 (M19-MEL) of the same compound?
A: 8280 nM (inactive)

Q: And the GI50 (HOP-92)?
A: 84.1 nM (active)

Q: What about the GI50 (SR) of the same compound?
A: 109 nM (active)

Q: What about the GI50 (PC-3) of the same compound?
A: 7730 nM (inactive)

Q: And the GI50 (HOP-18)?
A: 4270 nM (inactive)

Q: What about the GI50 (RPMI-8226) of the same compound?
A: 17000 nM (inactive)

Q: And the GI50 (SK-MEL-5)?
A: 776 nM (active)

Q: And the GI50 (SK-MEL-2)?
A: 13700 nM (inactive)

Q: What about the GI50 (RXF 393) of the same compound?
A: 236 nM (active)

Q: What about the GI50 (IGROV-1) of the same compound?
A: 2290 nM (inactive)

Q: What about the GI50 (SW-620) of the same compound?
A: 8180 nM (inactive)

Q: What about the GI50 (MDA-MB-231) of the same compound?
A: 15800 nM (inactive)

Q: What about the GI50 (UACC-62) of the same compound?
A: 451 nM (active)

Q: And the GI50 (786-0)?
A: 1050 nM (active)

Q: What about the GI50 (SK-MEL-28) of the same compound?
A: 18200 nM (inactive)

Q: What about the GI50 (OVCAR-3) of the same compound?
A: 4670 nM (inactive)

Q: And the GI50 (OVCAR-8)?
A: 3260 nM (inactive)

Q: What about the GI50 (EKVX) of the same compound?
A: 17800 nM (inactive)

Q: And the GI50 (RXF 631)?
A: 608 nM (active)

Q: What about the GI50 (TK-10) of the same compound?
A: 10800 nM (inactive)

Q: And the GI50 (MOLT-4)?
A: 1280 nM (inactive)

Q: And the GI50 (MCF7)?
A: 2450 nM (inactive)

Q: And the GI50 (OVCAR-4)?
A: 4920 nM (inactive)

Q: What about the GI50 (SF-295) of the same compound?
A: 114 nM (active)

Q: And the GI50 (Malme-3M)?
A: 356 nM (active)

Q: Which results are given for `COc1cc2c[n+](C)c3c4cc5c(cc4ccc3c2cc1OC)OCO5` [NITIDINE CHLORIDE]?
A: GI50 (MDA-MB-435): > 100000 nM (inactive); GI50 (DLD-1): 14900 nM (inactive); GI50 (SK-OV-3): 877 nM (active); GI50 (KM12): 2070 nM (inactive); GI50 (OVCAR-5): 1240 nM (inactive); GI50 (SNB-75): 220 nM (active); GI50 (A549): 180 nM (active); GI50 (A498): 1090 nM (active); GI50 (SN12C): 447 nM (active); GI50 (DMS-273): 745 nM (active); GI50 (LXFL 529): 1400 nM (inactive); GI50 (K562): 4510 nM (inactive); GI50 (HT-29): 1560 nM (inactive); GI50 (SF-539): 1780 nM (inactive); GI50 (SF-268): 126 nM (active); GI50 (M14): 17100 nM (inactive); GI50 (HOP-62): 2180 nM (inactive); GI50 (NCI/ADR-RES): 27000 nM (inactive); GI50 (DU-145): 2520 nM (inactive); GI50 (CAKI-1): 2370 nM (inactive); GI50 (SNB-19): 698 nM (active); GI50 (MDA-N): 64000 nM (inactive); GI50 (NCI-H226): 3610 nM (inactive); GI50 (HCC 2998): 2070 nM (inactive); GI50 (UACC-257): 26100 nM (inactive); GI50 (COLO 205): 1660 nM (inactive); GI50 (SNB-78): 3370 nM (inactive); GI50 (NCI-H460): 1730 nM (inactive); GI50 (NCI-H522): 240 nM (active); GI50 (HCT-116): 5960 nM (inactive); GI50 (NCI-H23): 1070 nM (active); GI50 (HCT-15): > 100000 nM; GI50 (ACHN): 71900 nM (inactive); GI50 (HL-60): 4250 nM (inactive); GI50 (LOX IMVI): 3970 nM (inactive); GI50 (CCRF-CEM): 752 nM (active); GI50 (XF498): 2660 nM (inactive); GI50 (KM-20L2): 608 nM (active); GI50 (UO-31): > 61400 nM (inactive); GI50 (DMS-114): 1240 nM (inactive); GI50 (U-251): 371 nM (active); GI50 (BT-549): 6500 nM (inactive); GI50 (M19-MEL): 1270 nM (inactive); GI50 (HOP-92): 2070 nM (inactive); GI50 (SR): 839 nM (active); GI50 (PC-3): 2330 nM (inactive); GI50 (HOP-18): 19500 nM (inactive); GI50 (RPMI-8226): 2060 nM (inactive); GI50 (SK-MEL-5): 5270 nM (inactive); GI50 (SK-MEL-2): 2680 nM (inactive); GI50 (RXF 393): 12400 nM (inactive); GI50 (IGROV-1): 1030 nM (active); GI50 (SW-620): 1140 nM (inactive); GI50 (MDA-MB-231): 2620 nM (inactive); GI50 (UACC-62): 1250 nM (inactive); GI50 (786-0): 2490 nM (inactive); GI50 (SK-MEL-28): 9380 nM (inactive); GI50 (OVCAR-3): 2240 nM (inactive); GI50 (OVCAR-8): 1810 nM (inactive); GI50 (Hs-578T): 2900 nM (inactive); GI50 (EKVX): 1700 nM (inactive); GI50 (RXF 631): 19800 nM (inactive); GI50 (TK-10): 29300 nM (inactive); GI50 (MOLT-4): 411 nM (active); GI50 (MCF7): 1140 nM (inactive); GI50 (OVCAR-4): 3450 nM (inactive); GI50 (SF-295): 5930 nM (inactive); GI50 (Malme-3M): 14500 nM (inactive)
